Experimental data taken from PubChem BioAssay AID1259407 (Chemical Carcinogenesis Research Information System (CCRIS), 2018).
Active and inactive are the calls of the source. How the calls were made is not given here.

Tested on: CCRIS mutagenicity, Ames/micronucleus/aberration tests
Test: CCRIS mutagenicity studies
[1] = Test System: AMES SALMONELLA TYPHIMURIUM, Strain/Indicator: TA98, Metabolic Activation: NONE, Method: PREINCUBATION
[2] = Test System: AMES SALMONELLA TYPHIMURIUM, Strain/Indicator: TA104, Metabolic Activation: NONE, Method: PREINCUBATION

C/C=C/C=C/C=O
mutagenic call (Test System: AMES SALMONELLA TYPHIMURIUM, Strain/Indicator: TA98, Metabolic Activation: HAMSTER LIVER S-9, AROCLOR 1254 (30%), Method: PREINCUBATION): inactive; negative | mutagenic call (Test System: AMES SALMONELLA TYPHIMURIUM, Strain/Indicator: TA98, Metabolic Activation: HAMSTER, LIVER, S-9, AROCLOR 1254, Method: STANDARD PLATE): inactive; negative | mutagenic call [1]: inactive; negative | mutagenic call (Test System: AMES SALMONELLA TYPHIMURIUM, Strain/Indicator: TA98, Metabolic Activation: NONE, Method: STANDARD PLATE): inactive; negative | mutagenic call (Test System: AMES SALMONELLA TYPHIMURIUM, Strain/Indicator: TA98, Metabolic Activation: RAT LIVER S-9, AROCLOR 1254 (30%), Method: PREINCUBATION): inactive; negative | mutagenic call (Test System: AMES SALMONELLA TYPHIMURIUM, Strain/Indicator: TA98, Metabolic Activation: RAT, LIVER, S-9, AROCLOR 1254, Method: STANDARD PLATE): inactive; negative | mutagenic call (Test System: AMES SALMONELLA TYPHIMURIUM, Strain/Indicator: TA100, Metabolic Activation: HAMSTER LIVER S-9, AROCLOR 1254 (5%), Method: PREINCUBATION): active; positive | mutagenic call (Test System: AMES SALMONELLA TYPHIMURIUM, Strain/Indicator: TA100, Metabolic Activation: HAMSTER LIVER S-9, AROCLOR 1254 (10%), Method: PREINCUBATION): active; positive | mutagenic call (Test System: AMES SALMONELLA TYPHIMURIUM, Strain/Indicator: TA100, Metabolic Activation: HAMSTER, LIVER, S-9, AROCLOR 1254, Method: STANDARD PLATE): inactive; negative | mutagenic call (Test System: AMES SALMONELLA TYPHIMURIUM, Strain/Indicator: TA100, Metabolic Activation: NONE, Method: PREINCUBATION (THREEFOLD CELL DENSITY)): active; positive | mutagenic call (Test System: AMES SALMONELLA TYPHIMURIUM, Strain/Indicator: TA100, Metabolic Activation: NONE, Method: STANDARD PLATE): inactive; negative | mutagenic call (Test System: AMES SALMONELLA TYPHIMURIUM, Strain/Indicator: TA100, Metabolic Activation: RAT LIVER S-9, AROCLOR 1254 (5%), Method: PREINCUBATION): active; positive | mutagenic call (Test System: AMES SALMONELLA TYPHIMURIUM, Strain/Indicator: TA100, Metabolic Activation: RAT LIVER S-9, AROCLOR 1254 (10%), Method: PREINCUBATION): active; positive | mutagenic call (Test System: AMES SALMONELLA TYPHIMURIUM, Strain/Indicator: TA100, Metabolic Activation: RAT, LIVER, S-9, AROCLOR 1254, Method: PREINCUBATION): active; positive | mutagenic call (Test System: AMES SALMONELLA TYPHIMURIUM, Strain/Indicator: TA100, Metabolic Activation: RAT, LIVER, S-9, AROCLOR 1254, Method: PREINCUBATION (THREEFOLD CELL DENSITY)): active; positive | mutagenic call (Test System: AMES SALMONELLA TYPHIMURIUM, Strain/Indicator: TA100, Metabolic Activation: RAT, LIVER, S-9, AROCLOR 1254, Method: STANDARD PLATE): inactive; negative | mutagenic call [2]: active; positive | mutagenic call (Test System: AMES SALMONELLA TYPHIMURIUM, Strain/Indicator: TA1535, Metabolic Activation: HAMSTER LIVER S-9, AROCLOR 1254 (30%), Method: PREINCUBATION): inactive; negative | mutagenic call (Test System: AMES SALMONELLA TYPHIMURIUM, Strain/Indicator: TA1535, Metabolic Activation: HAMSTER, LIVER, S-9, AROCLOR 1254, Method: STANDARD PLATE): inactive; negative | mutagenic call (Test System: AMES SALMONELLA TYPHIMURIUM, Strain/Indicator: TA1535, Metabolic Activation: NONE, Method: PREINCUBATION): inactive; negative | mutagenic call (Test System: AMES SALMONELLA TYPHIMURIUM, Strain/Indicator: TA1535, Metabolic Activation: NONE, Method: STANDARD PLATE): inactive; negative | mutagenic call (Test System: AMES SALMONELLA TYPHIMURIUM, Strain/Indicator: TA1535, Metabolic Activation: RAT LIVER S-9, AROCLOR 1254 (30%), Method: PREINCUBATION): inactive; negative | mutagenic call (Test System: AMES SALMONELLA TYPHIMURIUM, Strain/Indicator: TA1535, Metabolic Activation: RAT, LIVER, S-9, AROCLOR 1254, Method: STANDARD PLATE): inactive; negative | mutagenic call (Test System: AMES SALMONELLA TYPHIMURIUM, Strain/Indicator: TA1537, Metabolic Activation: HAMSTER, LIVER, S-9, AROCLOR 1254, Method: STANDARD PLATE): inactive; negative | mutagenic call (Test System: AMES SALMONELLA TYPHIMURIUM, Strain/Indicator: TA1537, Metabolic Activation: NONE, Method: STANDARD PLATE): inactive; negative | mutagenic call (Test System: AMES SALMONELLA TYPHIMURIUM, Strain/Indicator: TA1537, Metabolic Activation: RAT, LIVER, S-9, AROCLOR 1254, Method: STANDARD PLATE): inactive; negative | mutagenic call (Test System: AMES SALMONELLA TYPHIMURIUM, Strain/Indicator: TA1538, Metabolic Activation: HAMSTER, LIVER, S-9, AROCLOR 1254, Method: STANDARD PLATE): inactive; negative | mutagenic call (Test System: AMES SALMONELLA TYPHIMURIUM, Strain/Indicator: TA1538, Metabolic Activation: NONE, Method: STANDARD PLATE): inactive; negative | mutagenic call (Test System: AMES SALMONELLA TYPHIMURIUM, Strain/Indicator: TA1538, Metabolic Activation: RAT, LIVER, S-9, AROCLOR 1254, Method: STANDARD PLATE): inactive; negative | mutagenic call (Test System: MOUSE LYMPHOMA, Strain/Indicator: L5178Y (TK+/TK-), Metabolic Activation: NONE, Method: SUSPENSION/PLATE): active; positive. reevaluation of results: positive | mutagenic call (Test System: MOUSE LYMPHOMA, Strain/Indicator: L5178Y (TK+/TK-), Metabolic Activation: RAT, LIVER, S-9, AROCLOR 1254, Method: SUSPENSION/PLATE): inactive; negative. reevaluation of results: negative

O=C(Cl)c1ccc(Cl)cc1Cl
mutagenic call [1]: inactive; negative | mutagenic call (Test System: AMES SALMONELLA TYPHIMURIUM, Strain/Indicator: TA98, Metabolic Activation: RAT LIVER S-9, PCB, Method: PREINCUBATION): active; positive | mutagenic call (Test System: AMES SALMONELLA TYPHIMURIUM, Strain/Indicator: TA100, Metabolic Activation: NONE, Method: PREINCUBATION): inactive; negative | mutagenic call (Test System: AMES SALMONELLA TYPHIMURIUM, Strain/Indicator: TA100, Metabolic Activation: RAT LIVER S-9, PCB, Method: PREINCUBATION): active; positive | mutagenic call [2]: inactive; negative | mutagenic call (Test System: AMES SALMONELLA TYPHIMURIUM, Strain/Indicator: TA104, Metabolic Activation: RAT LIVER S-9, PCB, Method: PREINCUBATION): active; positive | mutagenic call (Test System: Ames Salmonella typhimurium, Strain/Indicator: TA98, Metabolic Activation: None, Method: Preincubation): inactive; negative | mutagenic call (Test System: Ames Salmonella typhimurium, Strain/Indicator: TA98, Metabolic Activation: Rat, Liver, S9, Sodium phenobarbital and 5,6-benzoflavone, Method: Preincubation): inactive; negative | mutagenic call (Test System: Ames Salmonella typhimurium, Strain/Indicator: TA100, Metabolic Activation: None, Method: Preincubation): inactive; negative | mutagenic call (Test System: Ames Salmonella typhimurium, Strain/Indicator: TA100, Metabolic Activation: Rat, Liver, S9, Sodium phenobarbital and 5,6-benzoflavone, Method: Preincubation): inactive; negative | mutagenic call (Test System: Ames Salmonella typhimurium, Strain/Indicator: TA1535, Metabolic Activation: None, Method: Preincubation): inactive; negative | mutagenic call (Test System: Ames Salmonella typhimurium, Strain/Indicator: TA1535, Metabolic Activation: Rat, Liver, S9, Sodium phenobarbital and 5,6-benzoflavone, Method: Preincubation): inactive; negative | mutagenic call (Test System: Ames Salmonella typhimurium, Strain/Indicator: TA1537, Metabolic Activation: None, Method: Preincubation): inactive; negative | mutagenic call (Test System: Ames Salmonella typhimurium, Strain/Indicator: TA1537, Metabolic Activation: Rat, Liver, S9, Sodium phenobarbital and 5,6-benzoflavone, Method: Preincubation): inactive; negative | mutagenic call (Test System: E. coli, Strain/Indicator: WP2uvrA/pKM101, Metabolic Activation: None, Method: Preincubation): inactive; negative | mutagenic call (Test System: E. coli, Strain/Indicator: WP2uvrA/pKM101, Metabolic Activation: Rat, Liver, S9, Sodium phenobarbital and 5,6-benzoflavone, Method: Preincubation): inactive; negative | mutagenic call (Test System: E.COLI, Strain/Indicator: WP2 UVRA, Metabolic Activation: NONE, Method: PREINCUBATION): inactive; negative | mutagenic call (Test System: E.COLI, Strain/Indicator: WP2 UVRA, Metabolic Activation: RAT LIVER S-9, PCB, Method: PREINCUBATION): inactive; negative
